Experimental data taken from patent US20250009716A1, “NOVEL INHIBITORS OF CLAUDIN-1 FOR THERAPEUTIC INTERVENTIONS” (BOARD OF REGENTS OF THE UNIVERSITY OF NEBRASKA, priority 2021, published 2025).
Entries after “also recorded” stand apart in the source; their conditions may differ.

Tests used:
[1] = test system: claudin-1 overexpressing cells; assay: Co-treatment with 5FU, inhibition of cell growth; assay type: cell-based; conditions: 16 in combination with 5-FU
Excerpt: Curve fitting analysis was done using four parametric logistic regression curve.
The CSC cells contribute to the generation of metastasis (16-19), and key CSC characteristics are highly relevant to metastasis, including invasive motility, and, resistance to apoptosis (20,21). […] Considering that chemoresistance is central to the CRC progression and metastasis, we further tested if adjuvant use of 16 with 5FU can have significant bearing upon these traits. Colon cancer cells were subjected to exogenous administration of 16 alone, or in combination with the 5-FU, the conventional anti-CRC drug. […] To further determine the mechanistic details the effect of 16 on association of claudin-1 and Src, SW480claudin-1 cells were treated with 16 or the vehicle and resultant cell lysate was subjected to Proximity ligation assay (PLA) or Co—IP.

[2] = Pharmacokinetics after single i.v. dose; assay type: in vivo, mice
Experimental: (§1) To determine the in vivo characteristics of this drug, a pharmacokinetic and tissue distribution study on 16 was performed. Following a single i.v. dose of 16 (1 mg/kg) in mice (C57B/16; n=5), serial blood samples were obtained at 0.08, 0.25, 0.75, 2, 4, 6, 8 and 24 hours after the injection and plasma samples were analyzed for 16 concentrations. Pharmacokinetic parameter values were obtained from the plasma concentration-time data using standard non-compartmental methods (WinNonlin, PharSight Corp). […] To assess the tissue distribution of 16, mice were sacrificed at 2, 8 and 24 hours after the i.v. administration of the drug. Measurable concentrations of 16 were detected in all studied tissues at 2, 8, and 24 h. […] Next, metabolic stability studies of 16 was evaluated using mouse liver S9 fractions for the in vitro assessment of phase I and II metabolism. […] Testosterone, 7-HC and diclofenac were used as positive controls, ensuring proper incubation conditions were maintained. […] The results of these in vitro drug metabolism studies guided the rational development of 16 structural analogs.
Pharmacokinetic parameter values were estimated from the plasma concentration-time data using standard noncompartmental methods and software (WinNonlin, PharSight Corp). […] Terminal elimination half-life (t1/2) was calculated by dividing 0.693 by terminal elimination rate constant Iz. Drug clearance (Cl) was calculated using standard equations. Area under the plasma concentration-time curve from 0 to 24 hours (AUCO-24) was calculated with the linear-log trapezoidal rule. The area under the plasma concentration-time curve from 0 to infinity (AUCO-infinity) was calculated as AUCO-24+C24/Iz. The absolute bioavailability (F) was calculated as the ratio between the AUCO-infinity from oral and intravenous routes using standard equations (FIG. 39).

[3] = Tissue distribution after i.v. dose; assay type: in vivo, mice
Experimental: as §1
Eight-week-old healthy Balb/c mice (male and female) mice were utilized for the pharmacokinetic and biodistribution studies. In this section, up to two different administration routes (oral or IP) were evaluated for each selected drug product. The specified drug and dose were administered to a 25 g mouse. A total of 36 mice were used for each compound tested. Blood was collected by cheek bleeding at selected times between 0-168 h post-injection. Liver, spleen, kidney, brain and bone marrow were harvested at terminal time points (2, 8, 24, 48, 72 h). Tissue samples were collected and processed for bioanalysis. The drug concentration in blood and tissues was measured by LC-MS/MS using methods developed during preliminary studies and validated according to FDA guidance. Drug accumulation in tissue was assessed by calculating a tissue to plasma concentration ratio (Kp), an indicator of drug accumulation (FIGS. 6A, 6B, 7, and 38).

COc1cc2ccccc2cc1C(=O)NC(=S)Nc1ccc(-c2nc3ccccc3[nH]2)cc1 [Compound 16]
combination effect with 5FU [1]: significant synergy; also recorded: synergistic effect in inhibition of cell growth | clearance ([2]; 1 mg/kg i.v.): 13 mL/min/kg | time up to which detectable in plasma ([2]; 1 mg/kg i.v.): up to 24 hrs | peak concentration ([2]; 1 mg/kg i.v., plasma): 798 ng/mL | mouse behavior or weight ([2]; 24 hours after single i.v. injection): no change in mouse behavior or weight | AUC ([2]; C57B/16, mouse, iv, 1 mg/kg i.v., plasma): 1210 ng·h/mL | half-life ([2]; C57B/16, mouse, plasma, iv, 1 mg/kg i.v., read-out: elimination t1/2 (converted)): 7 h | Vd ([2]; C57B/16, mouse, plasma, iv, 1 mg/kg i.v., read-out: volume of distribution): 8.4 L/kg | descending order of Kp ratios ([3]; 1 mg/kg i.v.): lungs>liver>spleen>kidney>heart>>brain | tissue concentrations ([3]; 2, 8 and 24 h after 1 mg/kg i.v.): higher concentrations in the lung and liver tissue | Kp ([3]; C57B/16, mouse, iv, all tissues except brain, 1 mg/kg i.v., read-out: tissue to plasma concentration ratio (Kp)): ≥ 1
